According to ChEMBL document CHEMBL3727350, “Agents and methods for treating ischemic and other diseases” (2014):
Active and inactive are the calls of the source. The calls are words filed in the database; no cut-off is given here.

biological target: Transient receptor potential cation channel subfamily M member 7 (Mus musculus) (UniProt Q923J1); assay: Inhibition of Tet-induced Flag-tagged mouse TRPM7 expressed in HEK293 cells assessed as inhibition of channel-mediated cell death in presence of Mg2+ incubated for 24 to 48 hrs by propidium iodide uptake assay; format: cell-based; design: concentration or dose not given beside the values; details: not given
Sequence (Q923J1 whole entry): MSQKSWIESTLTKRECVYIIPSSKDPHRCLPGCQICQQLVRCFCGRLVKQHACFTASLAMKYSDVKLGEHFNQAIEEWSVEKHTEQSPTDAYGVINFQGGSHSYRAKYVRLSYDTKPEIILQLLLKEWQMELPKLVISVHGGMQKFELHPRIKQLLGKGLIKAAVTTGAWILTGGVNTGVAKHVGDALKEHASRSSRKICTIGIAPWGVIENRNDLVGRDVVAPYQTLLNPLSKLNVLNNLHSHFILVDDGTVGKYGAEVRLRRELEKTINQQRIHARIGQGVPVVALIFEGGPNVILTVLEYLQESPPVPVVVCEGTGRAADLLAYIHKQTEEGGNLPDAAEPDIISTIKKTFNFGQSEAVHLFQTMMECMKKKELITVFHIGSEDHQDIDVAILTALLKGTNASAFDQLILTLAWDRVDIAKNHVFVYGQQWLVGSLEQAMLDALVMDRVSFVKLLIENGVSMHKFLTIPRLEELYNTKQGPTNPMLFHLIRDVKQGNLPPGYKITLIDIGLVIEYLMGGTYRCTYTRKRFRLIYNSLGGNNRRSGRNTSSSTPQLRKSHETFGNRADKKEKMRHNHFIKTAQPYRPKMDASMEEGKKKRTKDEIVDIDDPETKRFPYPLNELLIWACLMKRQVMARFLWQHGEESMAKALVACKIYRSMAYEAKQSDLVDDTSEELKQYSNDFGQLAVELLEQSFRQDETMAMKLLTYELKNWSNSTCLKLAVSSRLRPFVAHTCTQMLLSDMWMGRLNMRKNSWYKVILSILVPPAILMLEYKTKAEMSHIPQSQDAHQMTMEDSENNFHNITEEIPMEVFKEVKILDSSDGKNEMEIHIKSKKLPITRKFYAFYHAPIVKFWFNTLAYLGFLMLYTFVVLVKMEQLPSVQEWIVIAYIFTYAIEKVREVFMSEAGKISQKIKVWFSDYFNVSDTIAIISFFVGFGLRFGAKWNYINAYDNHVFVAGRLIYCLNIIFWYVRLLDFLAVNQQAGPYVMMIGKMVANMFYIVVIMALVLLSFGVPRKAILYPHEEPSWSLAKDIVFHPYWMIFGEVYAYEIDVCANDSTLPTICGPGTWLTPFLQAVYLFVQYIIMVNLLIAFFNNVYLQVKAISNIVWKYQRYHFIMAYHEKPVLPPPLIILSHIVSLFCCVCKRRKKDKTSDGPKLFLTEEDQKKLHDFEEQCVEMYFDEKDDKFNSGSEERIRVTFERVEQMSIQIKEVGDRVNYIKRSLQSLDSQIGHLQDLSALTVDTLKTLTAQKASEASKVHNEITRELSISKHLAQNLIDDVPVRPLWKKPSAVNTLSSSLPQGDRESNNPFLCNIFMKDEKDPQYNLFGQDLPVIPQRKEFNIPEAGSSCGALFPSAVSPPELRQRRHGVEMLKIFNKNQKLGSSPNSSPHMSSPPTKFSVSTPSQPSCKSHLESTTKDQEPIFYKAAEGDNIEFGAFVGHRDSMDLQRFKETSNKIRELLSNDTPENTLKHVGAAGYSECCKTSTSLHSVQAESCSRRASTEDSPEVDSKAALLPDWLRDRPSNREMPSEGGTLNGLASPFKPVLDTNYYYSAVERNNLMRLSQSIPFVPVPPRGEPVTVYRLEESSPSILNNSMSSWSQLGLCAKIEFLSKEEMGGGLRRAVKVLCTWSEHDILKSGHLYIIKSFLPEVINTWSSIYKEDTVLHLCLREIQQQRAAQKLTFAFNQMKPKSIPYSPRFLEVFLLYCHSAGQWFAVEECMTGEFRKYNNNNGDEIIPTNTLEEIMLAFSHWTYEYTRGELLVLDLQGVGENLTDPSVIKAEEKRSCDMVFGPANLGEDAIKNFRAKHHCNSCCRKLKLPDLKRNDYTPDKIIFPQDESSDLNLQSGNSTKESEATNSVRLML

| Structure (SMILES) | inhibition |
| --- | --- |
| CC[C@H]1CN2CCc3cc(OC)c(OC)cc3[C@@H]2C[C@@H]1C[C@H]1NCCc2cc(OC)c(OC)cc21 | Active |
| C[C@H]1O[C@@H](O[C@H]2[C@@H](O)C[C@H](O[C@H]3[C@@H](O)C[C@H](O[C@H]4CC[C@@]5(C)[C@H](CC[C@@H]6[C@@H]5C[C@@H](O)[C@]5(C)[C@@H](C7=CC(=O)OC7)CC[C@]65O)C4)O[C@@H]3C)O[C@@H]2C)C[C@H](O)[C@@H]1O | Dose-dependent effect |

same assay, conditions: concentration not given here

| Structure (SMILES) | inhibition [%] |
| --- | --- |
| O=C(NNC(=S)Nc1ccc2c(c1)CCCO2)c1ccco1 | < 30 |
| COC(=O)c1cc(C)nc(Sc2ccccc2NC(=O)c2ccccc2)n1 | < 30 |
| CC1CN=C(N(CCc2ccccc2)C(=O)Nc2ccc(Cl)cc2)S1 (stereo unspecified) | < 30 |
| O=C(c1ccc(F)cc1)C1CCN(Cc2c[nH]c(-c3ccccc3)n2)CC1 | 30 |
| CC(C)(C)[C@H](CO)/N=C/c1cccc(/C=N/[C@H](CO)C(C)(C)C)n1 | < 30 |
| O=S(=O)(c1cc(Cl)sc1Cl)N1CCN(CCc2ccccc2)CC1 | < 30 |
| CN(C(=O)c1cnc(Oc2ccc(Cl)cc2)cc1C(F)(F)F)c1ccc(Cl)c(Cl)c1 | 60 |
| CN1c2ccsc2C(O)=C(C(=O)Nc2cccc(Cl)c2)S1(=O)=O | < 30 |
| O=C(Nc1ccc(CN2CCS(=O)(=O)CC2)cc1)c1ccc(C(F)(F)F)cc1 | 40 |
| O=C(/C=C/c1cccs1)NC(=S)Nc1ccccc1Cl | < 30 |
| COc1cc(C(=O)Oc2c(Cl)cc(Cl)cc2/C=N\c2cccc(C(F)(F)F)c2)cc(OC)c1OC | < 30 |
| Cc1ccc(C(=O)Nc2ccc3c(c2)CS(=O)(=O)C3)cc1 | < 30 |
| CC(=O)/C(C#N)=C/c1ccco1 | < 30 |
| CSc1nc2c(c(/C=C/c3ccccc3)c1C#N)CCC2 | < 30 |
| Cc1cc(-c2nc(-c3ccc(C(C)(C)C)cc3)no2)no1 | 30 |
| O=C(c1cccs1)N1CCCN(Cc2cccc3ccccc23)CC1 | 80 |
| CCOC(=O)C1=C(C)NC(=O)NC1c1cccc2ccccc12 (stereo unspecified) | < 30 |
| O=C(Nc1ccc2ccccc2n1)c1ccc(Cl)cc1 | 50 |
| CC(C)(C)NC(=O)CSc1nnc([C@H](Cc2ccccc2)NC(=O)OC(C)(C)C)o1 | 30 |
| O=C(NCc1cccs1)c1ccccc1 | < 30 |
| CC(=O)c1ccc(Nc2cc(C)nc3ccccc23)cc1 | < 30 |
| FC(F)(F)c1cccc(OCc2ccc(-c3ncns3)cc2)c1 | 50 |

| Structure (SMILES) | inhibition [%] |
| --- | --- |
| Cc1cc(C(=O)Nc2ccc(C(C)(C)C)cc2)nn1Cc1c(Cl)cccc1Cl | 70 |
| O=C(CC12CC3CC(CC(C3)C1)C2)N1CCOCC1 | < 30 |
| CCCCCc1c(COC)c2ccc(O)cc2oc1=O | 50 |
| N#Cc1ccc(NC(=O)Nc2ccc(OCc3ccccc3)cc2)cc1 | 80 |
| N#Cc1ccc2[nH]cc(CCN(Cc3ccccc3)Cc3ccccc3)c2c1 | < 30 |
| CC(C)(C)c1ccc(OCc2ncc(S(=O)(=O)c3ccccc3)c(N)n2)cc1 | < 30 |
| COc1ccc2c(c1)CC/C(=C\c1ccc(Cl)cc1Cl)C2=O | 60 |
| CCCSC(=S)c1c(C)nn(-c2ccc(C)cc2)c1O | 50 |
| c1ccc2c(CNCc3cccc4ccccc34)cccc2c1 | 70 |
| Cc1nc(-c2ccc(S(=O)(=O)Nc3cccc(S(N)(=O)=O)c3)s2)cs1 | < 30 |
| O=C(CSc1ssc(=S)c1-c1ccccc1)Nc1ccc(Cl)cc1 | < 30 |
| Cc1onc(-c2c(Cl)cccc2Cl)c1C(=O)OCCOc1ccc(C(F)(F)F)cc1[N+](=O)[O-] | 60 |
| Cc1ccccc1NC(=O)NCc1cccs1 | 60 |
| CCCCc1ccc(NC(=O)CSc2nc(-c3ccccc3)c(-c3ccccc3)o2)c(C)c1 | < 30 |
| N#Cc1c(Cl)cccc1Oc1ccc(S(=O)(=O)Nc2ccccc2)cc1 | 40 |
| COc1cccc(NC(=O)Nc2nnc(C3CC3)s2)c1 | < 30 |
| Fc1ccc(C2CN3C(=N2)C=Cc2ccccc23)cc1 (stereo unspecified) | < 30 |
| CC(C)(C)c1ccc(-c2noc(-c3ccc4c(c3)CCO4)n2)cc1 | 60 |
| N#C/C(=N\Nc1ccc(Cl)c(Cl)c1)C(=O)C1CC1 | 40 |
| CCCCCCCCCc1c(O)c2ccccc2[nH]c1=O | 60 |
| O=S(=O)(NCc1cccs1)c1ccc(Sc2ncc(C(F)(F)F)cc2Cl)s1 | < 30 |
| O=C1/C(=C\c2cccs2)C(c2ccccc2)Oc2ccccc21 (stereo unspecified) | < 30 |

| Structure (SMILES) | inhibition [%] |
| --- | --- |
| O=C(/C(=N/Nc1ccc([N+](=O)[O-])cc1)C(=O)C(F)(F)F)c1cccs1 | 40 |
| FC(F)(F)c1ccc(C2c3ccsc3CCN2C(=S)Nc2ccc(Cl)cc2Cl)cc1 (stereo unspecified) | 70 |
| CC(C)(C)c1ccc(NC(=O)/C=C/C(=O)O)cc1 | < 30 |
| Cc1cc(O)nc2c1c(-c1ccccc1)nn2C | < 30 |
| Clc1cc(Cl)c(N/N=C/c2cc(C#Cc3ccccc3)cs2)c(Cl)c1 | 50 |
| COc1ccc(-c2n[nH]cc2CN2CCN(c3ccccc3OC)CC2)cc1 | < 30 |
| OC(CN1CCN(Cc2c(F)cccc2Cl)CC1)Cn1ccc2ccccc21 (stereo unspecified) | 50 |
| N#CCc1nn(-c2ccccc2)c(/N=C/c2cc(Cl)cc(Cl)c2O)c1C#N | 60 |
| CC(c1ccco1)N(C(=O)c1sc2ccccc2c1Cl)c1ccccn1 (stereo unspecified) | < 30 |
| O=C(Sc1ccc(C(F)(F)F)cn1)c1ccc(Cl)cc1 | < 30 |
| Cc1cc(NS(=O)(=O)c2cccs2)[nH]n1 | < 30 |
| O=C1CC(c2ccccc2)CC(=O)N1c1ccc(Oc2ccc(Cl)cc2)cc1 | < 30 |
| CC1(C)CC(=O)C=C(Sc2ccc(C#N)cc2[N+](=O)[O-])S1 | 50 |
| Cc1cc2c(cc1C)CSC(C)(c1ccc(F)cc1)SC2 | < 30 |
| Cc1ccc(NC(=O)c2cccc3c2-c2ccccc2C3)cc1 | < 30 |
| CCOC(=O)c1c(C)csc1NC(=O)CSc1ccc(Cl)cc1 | 50 |
| Cc1c(C)c(C)c(CO/N=C/c2cccs2)c(C)c1C | 70 |
| COc1ccc(/C=N/NS(=O)(=O)c2ccc(Cl)cc2)cc1OC | 80 |
| COc1ccccc1N1CCN(Cc2c[nH]c3ccccc23)CC1 | 70 |
| C#CCOC(=O)NC(=O)c1c(-c2ccc(Cl)cc2)n[nH]c1SC | < 30 |
| N=C(NS(=O)(=O)c1cc(Cl)c(Oc2ccc([N+](=O)[O-])cc2Cl)c(Cl)c1)c1cccnc1 | 70 |
| CCCC1c2ccsc2CCN1C(=S)Nc1ccc(Cl)cc1Cl (stereo unspecified) | 40 |

| Structure (SMILES) | inhibition [%] |
| --- | --- |
| Cc1ccc(NC(=O)c2c(-c3ccccc3Cl)noc2C)cc1F | < 30 |
| FC(F)(F)COc1ccc(-c2nc(-c3ccc(Cl)cc3)cs2)cn1 | 50 |
| COC(=O)c1scc(S(=O)(=O)C(C)C)c1N/N=C(\C#N)C(=O)c1ccccc1 | < 30 |
| Cc1onc(-c2c(Cl)cccc2Cl)c1C(=O)Oc1ccccc1 | < 30 |
| O=C(Nc1ccc(N2CCC(C(F)(F)F)CC2)nc1)c1ccc(OC(F)(F)F)cc1 | < 30 |
| CC1CCN(CC(=O)Nc2ccc(Cl)cc2C(=O)c2ccccc2Cl)CC1 | 70 |
| CC(C)(C)S(=O)(=O)/C(C#N)=C/N/N=C/c1ccccc1Cl | < 30 |
| COC(=O)/C(=C/N(C)C)NC(=O)c1ccccc1 | < 30 |
| COc1ccc2c(c1)CCC1SC(NC(=O)c3ccco3)=NC21 (stereo unspecified) | < 30 |
| Cc1onc(-c2ccccc2Cl)c1C(=O)Nc1cccc2cccnc12 | 60 |
| Cc1ccc(OC/C(N)=N/OC(=O)c2cc(C)on2)cc1 | < 30 |
| O=C(CCSCc1ccc(Cl)cc1)Nc1ccc(Cl)cc1 | 60 |
| CSc1nnc(CN2C(=O)CSc3ccc(C(F)(F)F)cc32)n1C | < 30 |
| CCOC(=O)c1cc(C)nn1C(=O)c1ccccc1Cl | 30 |
| O=C(Nc1ccc(Cl)cc1)Nc1ccccc1Oc1ccccc1 | 50 |
| O=C(Nc1ccccc1)OCCSCc1ccc2nc(C(F)(F)F)ccc2c1 | 60 |
| Cc1ccc(Oc2ccc(C(F)(F)F)cc2[N+](=O)[O-])c2c1CCC2 | < 30 |
| Brc1cn[nH]c1/C=N/Nc1nc(-c2ccccc2)cs1 | 50 |
| COc1ccccc1C1CCN(Cc2c[nH]nc2-c2ccccc2)CC1 | 80 |
| O=C(Nc1ccc(Cl)cc1)OCc1noc(-c2cccs2)n1 | 70 |
| [O-][S+](c1ccc(Cl)cc1)c1ccc(-c2ccccn2)s1 (stereo unspecified) | < 30 |
| Cc1ccc(Cn2nc(C(=O)O)cc2C)cc1 | < 30 |

| Structure (SMILES) | inhibition [%] |
| --- | --- |
| Cc1onc(-c2c(Cl)cccc2Cl)c1C(=O)NCCc1csc2ccccc12 | < 30 |
| O=[N+]([O-])c1cccc(-c2ccc(/C=N/NC(=S)NCc3ccco3)o2)c1 | < 30 |
| NC(=O)C1CCN(CCS(=O)(=O)c2ccccc2)CC1 | 30 |
| N#Cc1ccc2c(c1)Sc1ccccc1N2 | 60 |
| CSc1ncc2c(n1)CC(C)(C)C/C2=N/OC(=O)c1ccc(Cl)cc1 | < 30 |
| Cc1cccn2cc(-c3ccccc3Cl)nc12 | 30 |
| CC(C)NC(=S)Nc1ccc2c(c1)S(=O)(=O)C=C2 | < 30 |
| Cc1ccc(C(=O)Nc2ccc(Oc3ccc(C(C)(C)C)cc3)nc2)cc1 | 70 |
| COc1ccccc1NC(=O)Nc1nn(C)c2cccc(N(C)C)c12 | 60 |
| CC(C)c1ccc(-c2cc(=O)c3ccccc3o2)cc1 | 80 |
| Cc1cc(S(=O)(=O)Cc2noc(-c3c(C)noc3C)n2)c(C)cc1Cl | 40 |
| Cc1[nH]c2ccccc2c1CN1CCN(c2ccc(F)cc2)CC1 | < 30 |
| CCOC(=O)c1sc2nc(C)c(/N=N/c3ccccc3)c(C)c2c1N | < 30 |
| Cc1nc(-c2ccc(C(F)(F)F)cc2)nc(O)c1Cl | < 30 |
| COc1ccccc1C1CCN(C(=O)CSCc2cccc3ccccc23)CC1 | 80 |
| Cc1cc(SCc2nnc(-c3ccc([N+](=O)[O-])c(C)c3)o2)c(C)cc1Cl | 80 |
| Cc1ccc(-c2n[nH]cc2Sc2ccc(C(F)(F)F)cn2)cc1 | < 30 |
| CCOC(=O)c1cc(Cl)ccc1OS(=O)(=O)c1ccc(NC(C)=O)cc1 | 50 |
| N#CC(C#N)=CNc1cc(C(F)(F)F)ccc1N1CCc2ccccc2C1 | 50 |
| OC(COc1ccc(F)cc1)CN1CCN(Cc2c(F)cccc2Cl)CC1 (stereo unspecified) | 30 |
| Cc1ccc2c(c1)CCCN2C(=S)Nc1cccc(Cl)c1 | < 30 |
